According to patent publication US20020137780A1, “Differentiating agents for the treatment of inflammatory intestinal diseases” (priority 1995, published 2002):

Key:
IL-8 mRNA = test: Inhibition of IL-1β stimulated IL-8 gene expression in Caco-2 cells (Northern blot); assay type: cell-based
Experimental: Caco-2 cells (American Type Culture Collection, Rockville, Maryland) were plated at a density of 4×10^4 cells per cm^2 in 10 cm dishes containing Dulbecco's modified Eagle's medium (DMEM) with 10% fetal bovine serum and penicillin/streptomycin as described by Wu et al., J. Biol. Chem., 1992, 267:7863-7870 and Traber et al., Mol. Cell. Biol., 1992, 12:3614-3627. At days 5 (pre-confluent state) and 18 (post-confluent state) the cells were stimulated with complete medium containing 5 ng/ml of IL-1β (R and D Systems, Minneapolis, MN). Total RNA was isolated from these cells 2 and 4 hours after the addition of IL-1 containing medium as well as from a control cell population not treated with IL-1β in accordance with procedures described by Chomczynski, P. and Sacchi, N., Anal. Biochem., 1987, 162:156-159. Ten micrograms of RNA for each sample was electrophoretically separated, transferred to a nylon membrane, and UV crosslinked in accordance with procedures described by Traber et al., Am. J. Physiol., 1992, 262:G123-G130. A cDNA probe for IL-8 was prepared by RT-PCR of total RNA from Caco-2 cells stimulated with IL-1 for 2 hours. Random hexamers were used for reverse transcription of the RNA using reaction conditions similar to those described by Wu et al., Gastroenterology, 1993, 105:837-844. A 277 bp cDNA was amplified from the RT reaction by PCR using the 5′ primer IL-8(+103) and the 3′ primer IL-8(EX4), cloned using a TA-vector (Marchuk et al., Nuc. Acids Res., 1991, 19:1154), and labeled with ^32p using a Random Primers DNA labeling System (Gibco BRL, Gaithersburg, Md.). Hybridization of the Northern blots were performed using conditions as described by Huang et al., Mol. Endo., 1993, 7:1391-1398.

Caco-2 cells [1] = test: Caco-2 cell toxicity / cell death during treatment with differentiating agents
Caco-2 cells [2] = conditions: concentrations of 10-8 and 10-9; cited from earlier work
[3] = tested on: alkaline phosphatase mRNA; test: Induction of alkaline phosphatase mRNA, marker for intestinal epithelial cell differentiation, in Caco-2 cells; assay type: cell-based
[4] = tested on: murine erythroleukemia cells; conditions: in vitro; cited from earlier work
[5] = e.g. six premature infants fed butyrates for 4 days at about 20 mmol/kg/day; cited from earlier work
[6] = orally or intraperitoneally, 26.5 mmole/kg; cited from earlier work
cell proliferation = conditions: same dose; cited from earlier work

phenylacetate
IL-8 mRNA expression (IL-8 mRNA; phenylacetate 2.5 to 10 mM, IL-1β 5 ng/ml for 2 hours): Dose dependent inhibition
Caco-2 cell toxicity (Caco-2 cells [1]; any concentration of phenylacetate studied (2.5 to 10 mM)): no evidence of Caco-2 cell toxicity

C=C1/C(=C\C=C2/CCC[C@]3(C)[C@@H]([C@H](C)CCCC(C)(C)O)CC[C@@H]23)C[C@@H](O)C[C@@H]1O [1,25-(OH)2D3, 1,25-dihydroxyvitamin D3]
steady state IL-8 mRNA expression (IL-8 mRNA; concentrations of 10-8 and 10-9, IL-1β 5 ng/ml for 2 hours): decrease
Caco-2 cell proliferation (Caco-2 cells [2]): inhibit
markers of intestinal epithelial differentiation (Caco-2 cells [2]): induce

CCCC(=O)[O-].[Na+] [sodium butyrate]
concentration of maximal inhibition of IL-8 mRNA expression (IL-8 mRNA; Caco-2 cells, IL-1β 5 ng/ml for 2 hours): 2.5 mM
steady state levels of IL-8 mRNA (IL-8 mRNA; sodium butyrate 0.1 to 2.5 mM, 3 days, IL-1β 5 ng/ml for 2 hours): dose dependent reduction
expression of IL-8 mRNA (IL-8 mRNA; sodium butyrate at concentrations higher than 2.5 mM): increased expression
concentration causing significant toxicity and cell death (Caco-2 cells [1]; Caco-2 cells): higher than 2.5 mM
tolerance by Caco-2 cells / cell death (Caco-2 cells [1]; sodium butyrate 0.1 to 2.5 mM): well-tolerated by Caco-2 cells without any evidence of cell death
mRNA for alkaline phosphatase ([3]; sodium butyrate 2.5 mM): induction

CCCC(=O)O [butyric acid]
erythroid differentiation of erythroleukemia [4]: induced

CCC(=O)[O-].[Na+] [sodium propionate]
IL-8 mRNA expression (IL-8 mRNA; sodium propionate 0.1 to 20 mM, IL-1β 5 ng/ml for 2 hours): inhibited IL-8 mRNA expression in a dose dependent fashion
cell toxicity or death (Caco-2 cells [1]; maximum concentration studied, 20 mM): did not lead to cell toxicity or death
alkaline phosphatase mRNA expression ([3]; sodium propionate 0.1 to 20 mM): induction

CCCC(=O)OCC(O)CO (centres unmarked) [monobutyrin]
erythroid differentiation of erythroleukemia [4]: induced
potency relative to butyric acid on a molar basis [4]: much less potent

CCCC(=O)OCC(COC(=O)CCC)OC(=O)CCC [tributyrin]
tolerability in humans [5]: well tolerated
concentration giving identical biological response, relative to sodium butyrate (IL-8 mRNA; in vitro, differentiation and inhibition of IL-8 gene expression): one third
toxicity in mice [6]: No toxicity
erythroid differentiation of erythroleukemia [4]: induced
potency relative to butyric acid on a molar basis [4]: 3- to 4 fold
effectiveness in inhibiting cell proliferation relative to sodium butyrate (cell proliferation): only as effective as sodium butyrate
